{"source": "patent US9399626B2", "about": "“2-thiopyrimidinones” (Pfizer Inc., priority 2011, dated 2016)"}
{"target": "T1, MPO (purified from human polynuclear leukocytes) (Homo sapiens, UniProt P05164)", "T1 construct": "purified from human polynuclear leukocytes; purchased Calbiochem/EMD Biosciences; host or cells: human polynuclear leukocytes (natural source)", "T1 sequence (P05164 279-745 limits assumed)": "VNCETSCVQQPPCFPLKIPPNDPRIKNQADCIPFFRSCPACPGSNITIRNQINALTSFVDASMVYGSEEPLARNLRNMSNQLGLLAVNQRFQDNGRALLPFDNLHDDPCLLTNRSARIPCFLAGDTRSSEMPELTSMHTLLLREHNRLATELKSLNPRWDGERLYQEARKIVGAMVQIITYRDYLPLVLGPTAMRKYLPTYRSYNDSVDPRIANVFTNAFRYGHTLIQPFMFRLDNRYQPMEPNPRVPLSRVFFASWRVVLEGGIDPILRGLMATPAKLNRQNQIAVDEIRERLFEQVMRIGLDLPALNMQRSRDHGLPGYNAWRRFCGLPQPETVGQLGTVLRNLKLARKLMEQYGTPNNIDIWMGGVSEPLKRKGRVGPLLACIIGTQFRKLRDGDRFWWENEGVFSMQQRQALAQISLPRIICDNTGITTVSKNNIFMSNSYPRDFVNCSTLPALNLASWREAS", "T1 sequence (P05164 165-273 limits assumed)": "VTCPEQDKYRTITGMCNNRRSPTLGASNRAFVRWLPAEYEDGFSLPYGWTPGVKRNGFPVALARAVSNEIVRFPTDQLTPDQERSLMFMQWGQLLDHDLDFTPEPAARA", "assay": "MPO Amplex Red Activity Assay", "format": "biochemical", "conditions": "Table 1, 2 μM H2O2, pH 7.4", "outline": "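Human leukocyte MPO […] oxidises 30 μM Amplex Red with 2 μM H2O2 in 50 mM NaPi pH 7.4, 150 mM NaCl, 1 mM DTPA, 2% DMSO. Resorufin fluorescence (ex 530/em 580 nm) read every 20 s, minus catalase background. kobs from the first 600 s, corrected for auto-inactivation, fit versus [I] for kinact/KI.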"}
{"smiles": "COCCn1c(-c2ccc(F)cc2OC)cc(=O)[nH]c1=S", "note": "[Example 318, 6-(4-fluoro-2-methoxyphenyl)-1-(2-methoxyethyl)-2-thioxo-2,3-dihydropyrimidin-4(1H)-one]", "MPO kinact/Ki": "5240 1/s per M"}
{"smiles": "COCCn1c(-c2cccc3ccccc23)cc(=O)[nH]c1=S", "note": "[Example 319, 1-(2-methoxyethyl)-6-(1-naphthyl)-2-thioxo-2,3-dihydropyrimidin-4(1H)-one]", "MPO kinact/Ki": "7810 1/s per M"}
{"smiles": "COCCn1c(-c2cnc3ccccc3c2)cc(=O)[nH]c1=S", "note": "[Example 320, 1-(2-methoxyethyl)-6-quinolin-3-yl-2-thioxo-2,3-dihydropyrimidin-4(1H)-one]", "MPO kinact/Ki": "2390 1/s per M"}
{"smiles": "COCCn1c(-c2cccc3ncccc23)cc(=O)[nH]c1=S", "note": "[Example 321, 1-(2-methoxyethyl)-6-quinolin-5-yl-2-thioxo-2,3-dihydropyrimidin-4(1H)-one]", "MPO kinact/Ki": "2480 1/s per M"}
{"smiles": "COCCn1c(-c2cccc3cccnc23)cc(=O)[nH]c1=S", "note": "[Example 322, 1-(2-methoxyethyl)-6-quinolin-8-yl-2-thioxo-2,3-dihydropyrimidin-4(1H)-one]", "MPO kinact/Ki": "2800 1/s per M"}
{"smiles": "COCCn1c(-c2cc3ccccc3s2)cc(=O)[nH]c1=S", "note": "[Example 323, 6-(1-benzothien-2-yl)-1-(2-methoxyethyl)-2-thioxo-2,3-dihydropyrimidin-4(1H)-one]", "MPO kinact/Ki": "10200 1/s per M"}
{"smiles": "COCCn1c(-c2csc3ccccc23)cc(=O)[nH]c1=S", "note": "[Example 324, 6-(1-benzothien-3-yl)-1-(2-methoxyethyl)-2-thioxo-2,3-dihydropyrimidin-4(1H)-one]", "MPO kinact/Ki": "11300 1/s per M"}
{"smiles": "CNC(=O)c1cccc(-c2cc(=O)[nH]c(=S)n2CCOC)c1", "note": "[Example 325, 3-[3-(2-methoxyethyl)-6-oxo-2-thieno-1,2,3,6-tetrahydropyrimidin-4-yl]-N-methylbenzamide]", "MPO kinact/Ki": "1160 1/s per M"}
{"smiles": "COCCn1c(-c2ccc3c(c2)OCCO3)cc(=O)[nH]c1=S", "note": "[Example 326, 6-(2,3-dihydro-1,4-benzodioxin-6-yl)-1-(2-methoxyethyl)-2-thioxo-2,3-dihydropyrimidin-4(1H)-one]", "MPO kinact/Ki": "7480 1/s per M"}
{"smiles": "COCCn1c(-c2ccc(OC(C)C)cc2)cc(=O)[nH]c1=S", "note": "[Example 327, 6-(4-isopropoxyphenyl)-1-(2-methoxyethyl)-2-thioxo-2,3-dihydropyrimidin-4(1H)-one]", "MPO kinact/Ki": "1880 1/s per M"}
{"smiles": "COCCn1c(-c2ccccc2OC(C)C)cc(=O)[nH]c1=S", "note": "[Example 328, 6-(2-isopropoxyphenyl)-1-(2-methoxyethyl)-2-thioxo-2,3-dihydropyrimidin-4(1H)-one]", "MPO kinact/Ki": "4370 1/s per M"}
{"smiles": "COCCn1c(-c2cccc(OC)c2OC)cc(=O)[nH]c1=S", "note": "[Example 329, 6-(2,3-dimethoxyphenyl)-1-(2-methoxyethyl)-2-thioxo-2,3-dihydropyrimidin-4(1H)-one]", "MPO kinact/Ki": "963 1/s per M"}
{"smiles": "COCCn1c(-c2cc(OC)cc(OC)c2)cc(=O)[nH]c1=S", "note": "[Example 330, 6-(3,5-dimethoxyphenyl)-1-(2-methoxyethyl)-2-thioxo-2,3-dihydropyrimidin-4(1H)-one]", "MPO kinact/Ki": "5210 1/s per M"}
{"smiles": "COCCn1c(-c2ccc(OC)c(OC)c2)cc(=O)[nH]c1=S", "note": "[Example 331, 6-(3,4-dimethoxyphenyl)-1-(2-methoxyethyl)-2-thioxo-2,3-dihydropyrimidin-4(1H)-one]", "MPO kinact/Ki": "6330 1/s per M"}
{"smiles": "COCCn1c(-c2ccc(OC)nc2OC)cc(=O)[nH]c1=S", "note": "[Example 332, 6-(2,6-dimethoxypyridin-3-yl)-1-(2-methoxyethyl)-2-thioxo-2,3-dihydropyrimidin-4(1H)-one]", "MPO kinact/Ki": "3270 1/s per M"}
{"smiles": "COCCn1c(-c2cc(Cl)ccc2OC)cc(=O)[nH]c1=S", "note": "[Example 333, 6-(5-chloro-2-methoxyphenyl)-1-(2-methoxyethyl)-2-thioxo-2,3-dihydropyrimidin-4(1H)-one]", "MPO kinact/Ki": "6100 1/s per M"}
{"smiles": "COCCn1c(-c2ccc(OC)cc2Cl)cc(=O)[nH]c1=S", "note": "[Example 334, 6-(2-chloro-4-methoxyphenyl)-1-(2-methoxyethyl)-2-thioxo-2,3-dihydropyrimidin-4(1H)-one]", "MPO kinact/Ki": "6840 1/s per M"}
{"smiles": "COCCn1c(-c2ccc(Cl)cc2OC)cc(=O)[nH]c1=S", "note": "[Example 335, 6-(4-chloro-2-methoxyphenyl) 1-(2-methoxyethyl)-2-thioxo-2,3-dihydropyrimidin-4(1H)-one]", "MPO kinact/Ki": "9820 1/s per M"}
{"smiles": "COCCn1c(-c2ccc(C(=O)N(C)C)cc2)cc(=O)[nH]c1=S", "note": "[Example 336, 4-[3-(2-methoxyethyl)-6-oxo-2-thioxo-1,2,3,6-tetrahydropyrimidin-4-yl]-N,N-dimethylbenzamide]", "MPO kinact/Ki": "589 1/s per M"}
{"smiles": "COCCn1c(-c2cc(C(C)C)ccc2OC)cc(=O)[nH]c1=S", "note": "[Example 337, 6-(5-isopropyl-2-methoxyphenyl)-1-(2-methoxyethyl)-2-thioxo-2,3-dihydropyrimidin-4(1H)-one]", "MPO kinact/Ki": "13200 1/s per M"}
{"smiles": "COCCn1c(-c2cnc(N(C)C)cc2OC)cc(=O)[nH]c1=S", "note": "[Example 338, 6-[6-(dimethylamino)-4-methoxypyridin-3-yl]-1-(2-methoxyethyl)-2-thioxo-2,3-dihydropyrimidin-4(1H)-one]", "MPO kinact/Ki": "1280 1/s per M"}
{"smiles": "COCCn1c(-c2c(OC)ccc3ccccc23)cc(=O)[nH]c1=S", "note": "[Example 339, 1-(2-methoxyethyl)-6-(2-methoxy-1-naphthyl)-2-thioxo-2,3-dihydropyrimidin-4(1H)-one]", "MPO kinact/Ki": "10400 1/s per M"}
{"smiles": "COCCn1c(-c2cccc(OC(F)(F)F)c2)cc(=O)[nH]c1=S", "note": "[Example 340]", "MPO kinact/Ki": "1450 1/s per M"}
{"smiles": "COCCn1c(-c2cc3c(cc2OC)CCCC3)cc(=O)[nH]c1=S", "note": "[Example 341, 1-(2-methoxyethyl)-6-(3-methoxy-5,6,7,8-tetrahydronaphthalen-2-yl)-2-thioxo-2,3-dihydropyrimidin-4(1H)-one]", "MPO kinact/Ki": "14300 1/s per M"}
{"smiles": "COCCn1c(-c2cc(OC)c(OC)c(OC)c2)cc(=O)[nH]c1=S", "note": "[Example 342, 1-(2-methoxyethyl)-2-thioxo-6-(3,4,5-trimethoxyphenyl)-2,3-dihydropyrimidin-4(1H)-one]", "MPO kinact/Ki": "817 1/s per M"}
{"smiles": "COCCn1c(-c2ccc(OC)c(OC)c2OC)cc(=O)[nH]c1=S", "note": "[Example 343, 1-(2-methoxyethyl)-2-thioxo-6-(2,3,4-trimethoxyphenyl)-2,3-dihydropyrimidin-4(1H)-one]", "MPO kinact/Ki": "3570 1/s per M"}
{"smiles": "COCCn1c(-c2cc(C(C)C)c(F)cc2OC)cc(=O)[nH]c1=S", "note": "[Example 344, 6-(4-fluoro-5-isopropyl-2-methoxyphenyl)-1-(2-methoxyethyl)-2-thioxo-2,3-dihydropyrimidin-4(1H)-one]", "MPO kinact/Ki": "8480 1/s per M"}
{"smiles": "COCCn1c(-c2ccc(OC)c3nc(C)ccc23)cc(=O)[nH]c1=S", "note": "[Example 345, 1-(2-methoxyethyl)-6-(8-methoxy-2-methylquinolin-5-yl)-2-thioxo-2,3-dihydropyrimidin-4(1H)-one]", "MPO kinact/Ki": "946 1/s per M"}
{"smiles": "COCCn1c(-c2cc(F)ccc2OC(F)(F)F)cc(=O)[nH]c1=S", "note": "[Example 346]", "MPO kinact/Ki": "5890 1/s per M"}
{"smiles": "COCCn1c(-c2ccc(S(=O)(=O)N(C)C)cc2)cc(=O)[nH]c1=S", "note": "[Example 347, 4-[3-(2-methoxyethyl)-6-oxo-2-thioxo-1,2,3,6-tetrahydropyrimidin-4-yl]-N,N-dimethylbenzenesulfonamide]", "MPO kinact/Ki": "378 1/s per M"}
